This note sets out measurements from ChEMBL document CHEMBL5724914, “Linking interpersonal differences in gut microbiota composition and drug biotransformation activity” (2024).

For series [1] the following is noted: human gut metagenome, 24 h, 2 µM.
The conditions of series [2]: human gut metagenome, 24 h, 2 µM. The source holds these as a separate data set.
The nature of series [3]: The drug is tested on Z-013 corresponding to rabbit gut metagenome with ENA study accession number: PRJEB37062 and ENA sample accession number: ERS12561813 for biotransformation under anaerobic condition. The drug concentrations were measured over 9 timepoints collected between 0 and 24 hours of incubation by liquid-chromatography-coupled mass spectrometry (LC–MS). The settings on record: 2 µM.

The conditions of series [4]: human gut metagenome, 24 h, 2 µM. The source holds these as a separate data set.
Series [5] is described as follows: The drug is tested on Z-021 corresponding to metagenome with ENA study accession number: PRJEB37062 and ENA sample accession number: ERS12561820 for biotransformation under anaerobic condition. The drug concentrations were measured over 9 timepoints collected between 0 and 24 hours of incubation by liquid-chromatography-coupled mass spectrometry (LC–MS). The settings on record: 2 µM.

The conditions of series [6]: human gut metagenome, 24 h, 2 µM. This is another data set of the same source.
Series [7] can be described thus: The drug is tested on Z-004 corresponding to metagenome with ENA study accession number: PRJEB37062 and ENA sample accession number: ERS12561804 for biotransformation under anaerobic condition. The drug concentrations were measured over 9 timepoints collected between 0 and 24 hours of incubation by liquid-chromatography-coupled mass spectrometry (LC–MS). Conditions: 2 µM.

Series [8] is described as follows: The drug is tested on Z-030 corresponding to mouse gut metagenome with ENA study accession number: PRJEB37062 and ENA sample accession number: ERS12561829 for biotransformation under anaerobic condition. The drug concentrations were measured over 9 timepoints collected between 0 and 24 hours of incubation by liquid-chromatography-coupled mass spectrometry (LC–MS). Conditions: 2 µM.

For series [9] the following is noted: human gut metagenome, 24 h, 2 µM. The source holds these as a separate data set.
The conditions of series [10]: human gut metagenome, 24 h, 2 µM. The source holds these as a separate data set.
For series [11] the following is noted: human gut metagenome, 24 h, 2 µM. The source holds these as a separate data set.
Series [12] is described as follows: The drug is tested on Z-029 corresponding to rat gut metagenome with ENA study accession number: PRJEB37062 and ENA sample accession number: ERS12561828 for biotransformation under anaerobic condition. The drug concentrations were measured over 9 timepoints collected between 0 and 24 hours of incubation by liquid-chromatography-coupled mass spectrometry (LC–MS). Conditions: 2 µM.

Series [13] in a line: The drug is tested on Z-016 corresponding to mouse gut metagenome with ENA study accession number: PRJEB37062 and ENA sample accession number: ERS12561815 for biotransformation under anaerobic condition. The drug concentrations were measured over 9 timepoints collected between 0 and 24 hours of incubation by liquid-chromatography-coupled mass spectrometry (LC–MS). Conditions: 2 µM.

Series [14] is described as follows: The drug is tested on WLS-082 corresponding to human gut metagenome with ENA study accession number: PRJEB37062 and ENA sample accession number: ERS12561751 for biotransformation under anaerobic condition. The drug concentrations were measured over 9 timepoints collected between 0 and 24 hours of incubation by liquid-chromatography-coupled mass spectrometry (LC–MS). The settings on record: 2 µM.

For series [15] the following is noted: human gut metagenome, 24 h, 2 µM. The source holds these as a separate data set.
The nature of series [16]: The drug is tested on WLS-170 corresponding to human gut metagenome with ENA study accession number: PRJEB37062 and ENA sample accession number: ERS12561762 for biotransformation under anaerobic condition. The drug concentrations were measured over 9 timepoints collected between 0 and 24 hours of incubation by liquid-chromatography-coupled mass spectrometry (LC–MS). The settings on record: 2 µM.

Series [17] is described as follows: The drug is tested on WLS-240 corresponding to human gut metagenome with ENA study accession number: PRJEB37062 and ENA sample accession number: ERS12561773 for biotransformation under anaerobic condition. The drug concentrations were measured over 9 timepoints collected between 0 and 24 hours of incubation by liquid-chromatography-coupled mass spectrometry (LC–MS). The settings on record: 2 µM.

The nature of series [18]: The drug is tested on Z-010 corresponding to metagenome with ENA study accession number: PRJEB37062 and ENA sample accession number: ERS12561810 for biotransformation under anaerobic condition. The drug concentrations were measured over 9 timepoints collected between 0 and 24 hours of incubation by liquid-chromatography-coupled mass spectrometry (LC–MS). The settings on record: 2 µM.

Series [19] can be described thus: The drug is tested on Z-006 corresponding to mouse gut metagenome with ENA study accession number: PRJEB37062 and ENA sample accession number: ERS12561806 for biotransformation under anaerobic condition. The drug concentrations were measured over 9 timepoints collected between 0 and 24 hours of incubation by liquid-chromatography-coupled mass spectrometry (LC–MS). Conditions: 2 µM.

For series [20] the following is noted: human gut metagenome, 24 h, 2 µM. The source holds these as a separate data set.
Further: call rule not given here.

In the case of `COc1ccccc1OCC(O)CN1CCN(CC(=O)Nc2c(C)cccc2C)CC1` (stereo not given) [RANOLAZINE], the “Bacterial Biotransformation” value in series [1] is given as “Compound NOT metabolized”; in [2], “Compound NOT metabolized”; in [3], “Compound NOT metabolized”; in series [4], “Compound NOT metabolized”; in series [5] it was “Compound metabolized”; in series [6], “Compound NOT metabolized”. In addition, the “Bacterial Biotransformation” value in [7], in series [8], in series [9], in series [10], in series [11] and in series [12] was “Compound NOT metabolized” each time. Also, the “Bacterial Biotransformation” value in series [13], in [14], in [15], in series [16], in series [17] and in [18] was “Compound NOT metabolized” in each case. Further, the “Bacterial Biotransformation” value in series [19] and in series [20] was “Compound NOT metabolized” each time.
For `CCCc1nn(C)c2c(=O)[nH]c(-c3cc(S(=O)(=O)N4CCN(C)CC4)ccc3OCC)nc12.O=C(O)CC(O)(CC(=O)O)C(=O)O` [SILDENAFIL CITRATE], the “Bacterial Biotransformation” value in [1] is recorded as “Compound metabolized”; in series [2], “Compound NOT metabolized”; in series [3] it was “Compound NOT metabolized”; in [4] it was “Compound NOT metabolized”; in series [5], “Compound NOT metabolized”; in [6] it was “Compound NOT metabolized”. The “Bacterial Biotransformation” value in [7], in series [8], in [9], in series [10], in series [11] and in series [12] was “Compound NOT metabolized” throughout. The “Bacterial Biotransformation” value in series [13] is listed as “Compound NOT metabolized”; in [14] it was “Compound NOT metabolized”; in series [15] it was “Compound metabolized”; in [16], “Compound metabolized”; in series [17] it was “Compound metabolized”; in series [18], “Compound NOT metabolized”. In addition, the results for the “Bacterial Biotransformation” value in series [19] and in series [20] were “Compound NOT metabolized” and “Compound metabolized”, respectively.
With `COc1ccc2[nH]c([S+]([O-])Cc3ncc(C)c(OC)c3C)nc2n1` (stereo not given) [TENATOPRAZOLE], the “Bacterial Biotransformation” value in [1] is “Compound metabolized”; in [2] it was “Compound metabolized”; in series [3], “Compound metabolized”; in series [4], “Compound NOT metabolized”; in [5] it was “Compound NOT metabolized”; in series [6], “Compound metabolized”. Further, the “Bacterial Biotransformation” value in [7] is “Compound metabolized”; in [8] it was “Compound metabolized”; in [9], “Compound NOT metabolized”; in series [10], “Compound metabolized”; in series [11], “Compound NOT metabolized”; in series [12], “Compound metabolized”. The “Bacterial Biotransformation” value is listed as “Compound metabolized” in series [13]; “Compound metabolized” in series [14]; “Compound metabolized” in series [15]; “Compound NOT metabolized” in [16]; “Compound metabolized” in series [17]; “Compound metabolized” in series [18]. The “Bacterial Biotransformation” value in [19] and in [20] was “Compound metabolized” each time.
With `CN1C(C(=O)Nc2ccccn2)=C(O)c2sccc2S1(=O)=O` [TENOXICAM], the “Bacterial Biotransformation” value in series [1] is listed as “Compound NOT metabolized”; in series [2] it was “Compound NOT metabolized”; in [3], “Compound NOT metabolized”; in [4], “Compound NOT metabolized”; in series [5], “Compound metabolized”; in [6] it was “Compound NOT metabolized”. In addition, the “Bacterial Biotransformation” value in [7], in [8], in series [9], in series [10], in series [11] and in series [12] was “Compound NOT metabolized” throughout. Further, the “Bacterial Biotransformation” value in series [13], in series [14], in [15], in [16], in [17] and in [18] was “Compound NOT metabolized” in each case. Further, the “Bacterial Biotransformation” value in [19] and in series [20] was “Compound NOT metabolized” throughout.
For the molecule `O=c1n(CCCN2CCN(c3cccc(Cl)c3)CC2)nc2ccccn12` [TRAZODONE], the “Bacterial Biotransformation” value in [1] is “Compound metabolized”; in [2], “Compound metabolized”; in series [3] it was “Compound NOT metabolized”; in series [4], “Compound NOT metabolized”; in [5] it was “Compound NOT metabolized”; in series [6], “Compound NOT metabolized”. In addition, the “Bacterial Biotransformation” value in series [7] is reported as “Compound metabolized”; in [8], “Compound NOT metabolized”; in [9], “Compound NOT metabolized”; in [10] it was “Compound NOT metabolized”; in [11], “Compound metabolized”; in series [12], “Compound NOT metabolized”. Also, the “Bacterial Biotransformation” value in series [13] is “Compound NOT metabolized”; in series [14] it was “Compound metabolized”; in series [15] it was “Compound metabolized”; in [16] it was “Compound NOT metabolized”; in [17], “Compound metabolized”; in [18], “Compound metabolized”. In addition, the “Bacterial Biotransformation” value in series [19] is listed as “Compound NOT metabolized”; in [20], “Compound metabolized”.
As to `OC(CCN1CCCCC1)(c1ccccc1)C1CCCCC1` (stereo not given) [TRIHEXYPHENIDYL], the “Bacterial Biotransformation” value in [1] is listed as “Compound metabolized”; in [2] it was “Compound metabolized”; in series [3], “Compound NOT metabolized”; in [4], “Compound NOT metabolized”; in [5], “Compound metabolized”; in series [6], “Compound metabolized”. Also, the “Bacterial Biotransformation” value is reported as “Compound metabolized” in series [7]; “Compound NOT metabolized” in [8]; “Compound NOT metabolized” in series [9]; “Compound NOT metabolized” in series [10]; “Compound metabolized” in series [11]; “Compound NOT metabolized” in series [12]. In addition, the “Bacterial Biotransformation” value in [13] is reported as “Compound metabolized”; in series [14], “Compound NOT metabolized”; in series [15], “Compound NOT metabolized”; in series [16], “Compound metabolized”; in series [17] it was “Compound metabolized”; in series [18], “Compound metabolized”. In addition, the “Bacterial Biotransformation” value in [19] and in series [20] was “Compound NOT metabolized” each time.
